Laboratory results taken from PMC12768458 (European journal of medicinal chemistry, 2025).

Key:
[1] = system: colony forming megakaryocyte; settings: CFU-Mk ref 14; cited from earlier work
CXCL1 mRNA expression = settings: LPS-induced TSECs, prior work ref 27; cited from earlier work
BRD2-D2 = BRD2-D2 (Homo sapiens, UniProt P25440); experiment: differential scanning fluorimetry; format: binding; settings: DSF
CCL2 mRNA expression = settings: LPS-induced TSECs, prior work ref 27; cited from earlier work
BET bromodomains = experiment: differential scanning fluorimetry; format: binding; settings: DSF, majority of BET bromodomains
NLuc-BRD4-D1 = NLuc-BRD4-D1 (Homo sapiens, UniProt O60885); experiment: live-cell NanoBRET competition assay in HEK293T; format: cell-based; settings: 1.25 μM, 2 h at 37 °C
BRD3-D2 = BRD3-D2 (Homo sapiens, UniProt Q15059); experiment: differential scanning fluorimetry; format: binding; settings: DSF
Sequence of BRD3-D2 (Q15059 306-415 limits assumed): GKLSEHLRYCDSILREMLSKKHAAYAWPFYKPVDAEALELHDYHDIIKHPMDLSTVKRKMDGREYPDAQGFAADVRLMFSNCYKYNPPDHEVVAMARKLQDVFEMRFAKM

Sequence of BRD2-D2 (P25440 344-453 limits assumed): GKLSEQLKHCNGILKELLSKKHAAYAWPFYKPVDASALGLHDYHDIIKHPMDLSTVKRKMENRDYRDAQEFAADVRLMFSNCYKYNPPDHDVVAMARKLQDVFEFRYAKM

In the case of `CCNC(=O)c1cc2c(-c3cc(C(C)(C)O)ccc3Oc3c(C)cc(F)cc3C)cn(C)c(=O)c2[nH]1` [ABBV-744], the “less toxic compared to ABBV-075” value [1] is given as 18 fold.
In the case of `COc1cc2c(cc1-c1c(C)noc1C)ncc1[nH]c(=O)n([C@H](C)c3ccccn3)c12` [IBET-151], the “CXCL1 expression, in words” value (CXCL1 mRNA expression) is listed as “significant efficacy in reducing the downstream expression of CXCL1 and CCL2”, the “stabilization in melting temperature” value (BRD2-D2) is listed as 3.70 ±0.12 °C and the “CCL2 expression, in words” value (CCL2 mRNA expression) is listed as “decrease in CCL2 mRNA levels comparable to control levels”. The “stabilization in melting temperature” value (BET bromodomains) was over 6 °C, the “% inhibition of BRD4-D1” value (NLuc-BRD4-D1) was 85 ±6% and the “stabilization in melting temperature” value (BRD3-D2) was 3.96 ±0.09 °C.
In the case of `CC(=O)Nc1c(F)cc(C(=O)N[C@H]2CC[C@H](O)CC2)cc1O[C@@H](C)c1ccccc1` [iBET-BD2], the “CXCL1 expression, in words” value (CXCL1 mRNA expression) is given as “does not significantly reduce the expression of CXCL1”.
